The values below come from patent US9901081B2, “Transgenic mouse for determining the role of senescent cells in cancer” (Buck Institute for Research on Aging, priority 2012, dated 2018).

Data set [1] relates to K-Ras induced lung tumors. Nature of the data set: K-Ras mediated lung tumor multiplicity in INK-ATTAC:K-RasLA1 mice. It is filed as in vivo, mouse. More on the design: dose or concentration left out as unconfirmed. The settings on record: INK-ATTAC3:K-RasLA1 and INK-ATTAC5:K-RasLA1 mice; from three weeks of age; twenty one days after treatment; FIG. 4. The source says:
Briefly, INK-ATTAC (p16^Ink4a apoptosis through targeted activation of caspase) transgenic mice have an FK506-binding protein (FKBP)-caspase 8 (Casp8) fusion polypeptide under the control of the p16^Ink4a promoter (see FIG. 5 providing a vector sequence for the transgene and FIG. 6 providing sequences for components of the transgene including the promoter sequence). In the presence of AP20187, a synthetic drug that induces dimerization of a membrane bound myristoylated FKBP-Casp8 fusion protein, senescent cells specifically expressing the FKBP-Casp8 fusion protein via the p16^Ink4a promoter undergo programmed cell death (apoptosis) (see, e.g., Baker, Nature, supra, FIG. 1 therein). Two founder lines (INK-ATTAC^3 and INK-ATTAC^5) were each bred with the K-rasLA1 tumor model. […]
Two INK-ATTAC:K-RasLA1 were produced (one for INK-ATTAC line 3 and one for line 5). […] Twenty one days after treatment, the mice were sacrificed and tumor multiplicity in lungs was measured. […] In addition, metastasis and overall survival will be monitored after tumor induction in the presence or absence of p16-positive cells.

For data set [2], the system named is p16INK4a, IL-6, MMP-3, mRFP expression. Kind of data set: RNA expression of SASP biomarkers and mRFP reporter after irradiation and GCV. It is filed as in vivo, mouse.
Data set [3] has as its system senescent cells. Kind of data set: Detection and clearance of senescent cells by rLUC bioluminescence in irradiated p16-3MR mice. It is filed as in vivo, mouse. To be noted: 7 Gy X-ray, after three months GCV 25 mg/kg, lung tissue, FIG. 1A. How it is done:
Briefly, a group of p16-3MR transgenic mice were exposed to whole body ionizing radiation (7 Gy X-ray) and a control group of p16-3MR transgenic mice were mock-irradiated. After three months, the mice were treated with GCV (25 mg/kg) or vehicle only, and then at least two weeks later bioluminescence in tissues was examined after administering the rLUC substrate.

Data set [4] concerns B16 mouse melanoma cells. Nature of the data set: Subcutaneous B16 melanoma growth in doxorubicin-treated p16-3MR mice. The settings on record: for tumor growth / primary tumors (B16 bioluminescence) / tumor diameters (tumor sizes): then vehicle or GCV, twelve days after B16 injection; for tumor growth / primary tumors (B16 bioluminescence): FIG. 11; for tumor diameters (tumor sizes): FIG. 12. It is filed as in vivo. How it is done:
(§1) Briefly, p16-3MR transgenic mice were treated with vehicle (ctrl) or 10 mg/kg doxorubicin. Seven days after doxorubicin treatment, mice were treated daily with GCV (25 mg/kg) for 7 days or vehicle only. 3 days after the last GCV treatment, 4×10^5 B16 mouse melanoma cells were injected subcutaneously into the p16-3MR transgenic mice, and mice were sacrificed after 12 days for analysis.

For data set [5], the system named is B16 mouse melanoma cells. Nature of the data set: B16 melanoma tail-vein engraftment in irradiated p16-3MR mice (primary tumors and metastases). It is filed as in vivo. How it is done:
Briefly, 10^6 B16 mouse melanoma cells, a highly aggressive cell line that is syngeneic with p16-3MR transgenic mice (C57B16 background), that express firefly luciferase (fLUC, to enable their detection by bioluminescence) were injected into the tail vein of the p16-3MR transgenic mice three months after being either mock irradiated or irradiated, as described in Example 2. B16 mouse melanoma cells first colonize the lung, where they form primary tumors approximately two weeks after injection, and thereafter metastasize to distal tissues to form secondary tumors in, for example, the pancreas, liver and visceral fat. The biolumninescence markers, fLUC and rLUC are distinguishable because the enzymes use different substrates.
As nodules are difficult to count in fat tissue, metastatic cells were represented as an estimated % of total area of fat.

A further data set concerns p16INK4a and mRFP mRNAs. Nature of the data set: Senescent cell biomarkers in skin biopsies of doxorubicin-treated p16-3MR mice. It is filed as in vivo, mouse. The settings on record: doxorubicin 10 mg/kg, then vehicle or GCV 25 mg/kg daily for 7 days; FIG. 10. Here is the method:
as §1
Skin biopsies were collected and measured for abundance of senescent cell biomarkers (p16INK4a and mRFP mRNAs).

Data set [6] can be described thus: Behavior metrics in p16-3MR mice bearing MMTV-PymT tumors. It is filed as in vivo, mouse. How it is done: (§2) The MMTV-PymT tumor cells (5×10^5 cells) were injected into a mammary fat pad of each mouse. Small primary tumors formed over a period of one week. Then doxorubicin (DOXO) at 10 mg/kg or vehicle only (PBS) was administered once at Day 7. Beginning three days after mice received DOXO, GCV was then administered daily for five days intraperitoneally at 25 mg/kg, or vehicle only was administered. Four different treatment groups of mice (7 mice per group) included (1) no doxorubicin (vehicle), no GCV (vehicle); (2) doxorubicin, no GCV; (3) no doxorubicin, GCV; and (4) doxorubicin, GCV. Bioluminescence in tissues was examined (after administering the firefly luciferase (fLUC) substrate) to monitor tumor formation (see FIG. 14).
(§3) Mice were housed in metabolic cages (Promethion, Sable Systems International, Las Vegas, Nev.) for a period of 4 days to monitor food consumption, water consumption, body mass, spontaneous activity and behavior, voluntary exercise, oxygen consumption, and carbon dioxide production. Three days after GCV treatment, animals were monitored for three nights, and the following nocturnal measurements were obtained: VO2 (mL/min); VCO2 (mL/min); food uptake (g); water uptake (g); Kcal/hr; and wheel run distance (m). The data represent the average of the three nocturnal measurements.
Behavior of animals treated doxorubicin or doxorubicin and GCV was assessed by several criteria accepted in the art as behavior metrics.

Data set [7] can be described thus: Metabolic cage measurements in p16-3MR mice bearing MMTV-PymT tumors. It is filed as in vivo, mouse. The settings on record: MMTV-PymT tumor mice; DOXO 10 mg/kg Day 7, GCV 25 mg/kg i.p. daily 5 days; average of three nocturnal measurements. How it is done: as §2, §3
Data set [8] is described as follows: Metabolic cage measurements in p16-3MR mice not injected with tumor cells. It is filed as in vivo, mouse. To be noted: doxorubicin 10 mg/kg once, GCV 25 mg/kg i.p. 5x daily. Here is the method: (§4) Groups of p16-3MR transgenic mice (5 mice per group) were treated once with doxorubicin (10 mg/kg) or vehicle only as described above. Three days later, GCV was administered 5× daily intraperitoneally at 25 mg/kg, or vehicle only was administered. Three different treatment groups of mice included (1) untreated (NT); (2) doxorubicin, no GCV (DOXO+PBS); (3) doxorubicin and GCV (DOXO+GCV). Mice were housed in metabolic cages for 5-8 days and monitored as described above.

Data set [9] relates to senescent cells. Kind of data set: Doxorubicin-induced senescent cells in tissues of p16-3MR mice (mRFP and p16INK4a mRNA). To be noted: doxorubicin 10 mg/kg. It is filed as in vivo, mouse. The text has this:
Similar results were observed when the senescent cell accumulation was induced with the chemotherapeutic agent, doxorubicin. […] Various tissues were isolated (liver, heart, lung, kidney, and spleen) and measured for abundance of mRNAs encoding mRFP and p16INK4a as markers for senescent cells (see FIGS. 9A and 9B, respectively).

Data set [10] is described as follows: Behavior metrics in p16-3MR mice not injected with tumor cells. It is filed as in vivo, mouse. How it is done:
as §4

Where [11] appears, read: GCV, fifteen days after B16 injection, FIG. 2C.
Where [12] appears, read: MMTV-PymT tumor mice, 28 days after injection with tumor cells.

Regarding `CC[C@H](C(=O)N1CCCC[C@H]1C(=O)O[C@H](CCc1ccc(OC)c(OC)c1)c1cccc(OCC(=O)NCC(CNC(=O)COc2cccc([C@@H](CCc3ccc(OC)c(OC)c3)OC(=O)[C@@H]3CCCCN3C(=O)[C@@H](CC)c3cc(OC)c(OC)c(OC)c3)c2)CN(C)C)c1)c1cc(OC)c(OC)c(OC)c1` [AP20187], the “tumor numbers (tumor multiplicity in lungs)” value in [1] was “significantly reduced”.

Regarding `Nc1nc(O)c2ncn(COC(CO)CO)c2n1` [GCV, ganciclovir], in data set [2] (irradiated p16-3MR mice treated with GCV, FIG. 1B), the “p16INK4a (p16), IL-6, MMP-3 and mRFP expression levels” value is “returned p16INK4a (p16), IL-6, MMP-3 and mRFP expression levels to those found in the unirradiated control mice”. For the same compound, the “effect on expression levels in wild-type mice” value in [2] (wild-type, non-transgenic C57B16 mice, data not shown) is “no detectable effect”. Moreover, the “rLUC expression levels (bioluminescence in tissues)” value in the data set with senescent cells [3] is “comparable to unirradiated mice”. In the data set with B16 mouse melanoma cells [4] (doxorubicin 10 mg/kg), the “tumor growth / primary tumors (B16 bioluminescence)” value is reported as “much smaller primary tumors” and the “tumor diameters (tumor sizes)” value is recorded as “smaller tumor sizes”. The “size of B16 melanoma tumors” value in the data set on B16 mouse melanoma cells [4] (mice pre-treated with doxorubicin 10 mg/kg, GCV 25 mg/kg daily for 7 days) is reported as “substantially reduced the size”. Also, in the data set with B16 mouse melanoma cells [5] (18 days after injection), the “Detection of metastatic B16 melanoma cells: Fat (estimated % of total area of fat)” value is 25%, the “Detection of metastatic B16 melanoma cells: Liver (luminescent metastatic nodules)” value came out at 7 ± 3.6 nodules and the “Detection of metastatic B16 melanoma cells: Lung (luminescent nodules)” value is “TNTC”. Also, the “levels of B16 cells as detected by luminescence” value in the data set with B16 mouse melanoma cells [5] (GCV, day 18, FIG. 8) is reported as “still showed relatively low levels of B16 cells”. Moreover, the primary lung tumors result in the data set with B16 mouse melanoma cells [5] (GCV, eighteen days after injection, FIG. 3A) was “large primary lung tumors were evident”. In the data set on B16 mouse melanoma cells [5] (GCV, eighteen days after injection, FIG. 3A, 3C), the “metastases in distal organs (liver and fat tissue)” value is “almost devoid of metastases”. In the data set on B16 mouse melanoma cells [5] (setting [11]), the metastases entry was “many fewer metastases” and the primary tumors result was “much smaller primary tumors”. For the same compound, the “levels of B16 cells as detected by luminescence” value with B16 mouse melanoma cells [5] (GCV, fifteen days after injection, FIG. 8) is “relatively low levels of B16 cells”. The “senescence in skin biopsies measured by p16INK4a and mRFP expression” value in the data set on p16INK4a and mRFP mRNAs is “low levels of p16INK4a and mRFP expression”. Further, the “active behaviors (WHEEL, LLNGE, SLNGE)” value in data set [6] (tumor model animals treated with GCV after doxorubicin, vs doxorubicin only) was “significantly more active behaviors”.

On to `COc1cccc2c1C(=O)c1c(O)c3c(c(O)c1C2=O)C[C@@](O)(C(=O)CO)C[C@@H]3O[C@H]1C[C@H](N)[C@H](O)[C@H](C)O1` [doxorubicin], for which, in data set [7], the Kcal/hr turned out to be 0.39 ± 0.1 kcal/h, the VCO2 worked out at 1.19 ± 0.35 mL/min, the VO2 turned out to be 1.35 ± 0.33 mL/min and the Wheel run distance is given as 3315 ± 1958 m. In data set [8], the Kcal/hr is 0.34 ± 0.1 kcal/h, the VCO2 is listed as 1.1 ± 0.36 mL/min, the VO2 came to 1.14 ± 0.34 mL/min and the “Wheel run distance (total m)” value is 2708 ± 1867 m. Also, in the data set with B16 mouse melanoma cells [4] (doxorubicin 10 mg/kg), the “growth of B16 melanoma cells injected subcutaneously” value is recorded as “stimulated the growth”, the “tumor growth / primary tumors (B16 bioluminescence)” value is reported as “increased” and the “tumor diameters (tumor sizes)” value was “increased tumor sizes”. Further, the “presence of senescent cells in tissues” value with senescent cells [9] (p16-3MR mice) is listed as “induced the persistent presence of senescent cells”. Also, in the data set on senescent cells [9] (liver, heart, lung, kidney, spleen, vs untreated control mice, FIGS. 9A, 9B), the “levels of mRFP and p16INK4a mRNA in tissues” value was “higher levels of mRFP and p16INK4a in all tissues”. For the same compound, in data set [10], the IHOME turned out to be 1.86 ± 1.66, the LLNGE came out at 61.46 ± 18.11, the SLNGE stood at 6.94 ± 2.51 and the THOME was 1.15 ± 1.12. The WHEEL in data set [10] turned out to be 9.58 ± 13.12. Further, the “senescence in skin biopsies measured by p16INK4a and mRFP expression” value in the data set with p16INK4a and mRFP mRNAs is “increased senescence”. Besides, in data set [6] (setting [12]), the “IHOME: Entered habitat (stable mass reading)” value turned out to be 4.86 ± 12.3; the “LLNGE: Long lounge (>60 sec, no non-XY sensor interactions)” value is reported as 72.06 ± 24.05; the “SLNGE: Short lounge (5-60 sec, no non-XY sensor interactions)” value was determined as 5.34 ± 3.64; the “THOME: Interaction with habitat (no stable mass reading)” value was 1.16 ± 2.54. For the same compound, in data set [6] (setting [12]), the “WHEEL: Interaction with wheel (>=1 revolution)” value amounted to 7.09 ± 10.84.
